Earlier results on 2 molecules are cited in US20250000898A1, “MAGNESIUM OXIDE-CONTAINING PHARMACEUTICAL COMPOSITION FOR TREATING PEDIATRIC CHRONIC FUNCTIONAL CONSTIPATION” (SETOLAS Holdings, Inc., priority 2021, published 2025).

Series [1] relates to children under 15 years of age diagnosed with chronic constipation. As to conditions: for percentage of patients treated successfully for constipation (success rate for treatment of constipation): children under 15 years, median age 2 years 11 months, 3 weeks (magnesium oxide: 50 mg/kg per day, 20 of 49 cases; lactulose: 9 of 50 cases).
For series [2] the following is noted: 50 mg/kg daily, 3 weeks.

On to `[O]=[Mg]` [magnesium oxide powder, magnesium oxide], for which, in series [1], the “percentage of patients treated successfully for constipation (success rate for treatment of constipation)” value is 41%. In series [1] (second and third weeks after administration, 50 mg/kg daily in two divided doses, 3 weeks), the “average frequency of defecation” value was 5.5±3.15. Besides, the “average stool status score (Bristol Stool Scale)” value in series [1] (second and third weeks after administration, 50 mg/kg daily, 3 weeks) was 4.90±0.91. Also, the hypermagnesemia entry in series [2] is listed as “None of the patients exhibited hypermagnesemia”.

Consider `OC[C@H]1O[C@@H](O[C@@H]2[C@@H](CO)OC(O)(CO)[C@H]2O)[C@H](O)[C@@H](O)[C@H]1O` (mixture of isomers) [lactulose], for which, in series [1], the “percentage of patients treated successfully for constipation (success rate for treatment of constipation)” value is 18%.
